Assay results from patent US8044052B2, “Biaryl ether urea compounds” (Pfizer Inc., priority 2006, dated 2011).
Counter-ions that a name gives are not always drawn.

Biological target: T1, Human FAAH (Homo sapiens, UniProt O00519)
T1 construct: made in house
T1 sequence (O00519 1-579): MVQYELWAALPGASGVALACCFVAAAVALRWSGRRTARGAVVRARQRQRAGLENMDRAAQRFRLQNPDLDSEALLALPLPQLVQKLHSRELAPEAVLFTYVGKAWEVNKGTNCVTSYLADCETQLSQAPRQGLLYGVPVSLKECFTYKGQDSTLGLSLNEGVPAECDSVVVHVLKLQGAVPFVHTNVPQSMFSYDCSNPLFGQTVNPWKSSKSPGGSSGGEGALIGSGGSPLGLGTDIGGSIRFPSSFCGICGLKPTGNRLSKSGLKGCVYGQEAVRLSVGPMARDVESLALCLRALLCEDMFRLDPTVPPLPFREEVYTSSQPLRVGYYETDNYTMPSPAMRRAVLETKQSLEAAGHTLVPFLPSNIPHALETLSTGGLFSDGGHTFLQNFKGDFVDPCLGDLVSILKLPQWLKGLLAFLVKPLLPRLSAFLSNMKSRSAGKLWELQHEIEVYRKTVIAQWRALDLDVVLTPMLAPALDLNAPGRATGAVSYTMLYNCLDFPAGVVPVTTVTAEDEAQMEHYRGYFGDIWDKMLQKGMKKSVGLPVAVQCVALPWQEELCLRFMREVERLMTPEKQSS
Test: FAAH assay (glutamate dehydrogenase-coupled, oleamide substrate, absorbance at 340 nm)
Format: biochemical
Conditions: irreversible inhibition, 1-4 nM FAAH, pH 7.4, 30° C., 90 min
Method: The FAAH assay was carried out in 384-well clear polystyrene plates in a total volume of 50 μl per well. All percents are by volume. To each well, was placed the reaction mixture (40 μl) containing 1-4 nM FAAH, 50 mM NaPi, pH 7.4, 3 mM α-ketoglutarate, 0.15 mM NADH, 7.5 U/ml glutamate dehydrogenase, 2 mM ADP, 1 mM EDTA, and 0.1% Triton X-100 (The concentration shown for each component is the final concentration in the assay). […] This was immediately followed by the addition of 5 μl oleamide (500 μM) dissolved in 75% EtOH/25% DMSO and the reaction mixture was mixed for 1.5 min. The final concentrations of DMSO and EtOH in the assay were each 7.5%.
Initial velocity data (V) were obtained from the slopes of the initial progressive curves. They were plotted as a function of substrate concentration and fit to the Michaelis-Menten equation (1) using Prism (GraphPad Software, Inc., San Diego, Calif.) software to obtain Km and Vmax values.
To obtain potencies of irreversible inhibitors, progressive curves consistent with first order inhibition kinetics (two-step irreversible inhibition mechanism) were fit to equation (2) by nonlinear least squares regressions to determine kobs values at each inhibitor concentration, where [P]t is the absorbance at time t, V0 is a constant related to the steady state rate of the uninhibited reaction, and kobs is the first order rate constant for enzyme inactivation. The inhibitor dissociation constant (Ki) and the first order rate
[formula] constant of enzyme inactivation at infinite inhibitor concentration (kinact) were then obtained by fitting the kobs vs. [I] curves to equation (3).

“4-(3-(5-methylpyridin-2-yloxy)benzylidene)-N-pyridin-3-yl)piperidine-1-carboxamide [Example 44]” and “4-(3-ethoxy-5-{[5-(trifluoromethyl)pyridin-2-yl]oxy}benzylidene)-N-pyridin-3-ylpiperidine-1-carboxamide trifluoroacetate [Example 74]” are within 1.5-fold of each other in “hFAAH kinact/Ki” value: 9480 M⁻¹ s⁻¹ for the first, 9870 M⁻¹ s⁻¹ for the second.

`O=C(Nc1ccccn1)N1CCC(=Cc2cccc(Oc3ccc(C(F)(F)F)cn3)c2)CC1` [Example 9] and `O=C(Nc1ccc2cc[nH]c2n1)N1CCC(=Cc2cccc(Oc3ccc(C(F)(F)F)cn3)c2)CC1` [Example 13, N-1H-pyrrolo[2,3-b]pyridin-6-yl-4-(3-{[5-(trifluoromethyl)pyridin-2-yl]oxy}benzylidene) piperidine-1-carboxamide] are within 1.5-fold of each other in “hFAAH kinact/Ki” value: 3660 M⁻¹ s⁻¹ for the first, 3870 M⁻¹ s⁻¹ for the second.

With `Cc1cnc(NC(=O)N2CCC(=Cc3cccc(Oc4ccc(C(F)(F)F)cn4)c3)CC2)cn1` [Example 22, N-(5-methyl-pyrazin-2-yll)-4-(3-{[5-(trifluoromethyl)pyridin-2-yl]oxy}benzylidene)piperidine-1-carboxamide] the “hFAAH kinact/Ki” value was 12000 M⁻¹ s⁻¹.

Same assay, conditions: irreversible inhibition, 1-4 nM FAAH, pH 7.4, 30° C., 90 min, read-out: hFAAH kinact/Ki

`O=C(Nc1cccnc1)N1CCC(=Cc2cccc(Oc3ccc(C(F)(F)F)cn3)c2)CC1` [Example 1, N-pyridin-3-yl-4-(3-{[5-(trifluoromethyl)pyridin-2-yl]oxy}benzylidene)piperidine-1-carboxamide] and `O=C(Nc1ccnnc1)N1CCC(=Cc2cccc(Oc3ccc(C(F)(F)F)cn3)c2)CC1` [Example 25, N-(pyridazin-4-yl)-4-(3-{[5-(trifluoromethyl)pyridin-2-yl]oxy}benzylidene)piperidine-1-carboxamide] are within 1.5-fold of each other in kinact/KI: 13300 M⁻¹ s⁻¹ for the first, 12100 M⁻¹ s⁻¹ for the second.

Compared with `Cc1noc(NC(=O)N2CCC(=Cc3cccc(Oc4ccc(C(F)(F)F)cn4)c3)CC2)c1C` [Example 2, N-(3,4-dimethylisoxazol-5-yl)-4-(3-{[5-(trifluoromethyl)pyridin-2-yl]oxy}benzylidene)piperidine-1-carboxamide], `O=C(Nc1onc2ccccc12)N1CCC(=Cc2cccc(Oc3ccc(C(F)(F)F)cn3)c2)CC1` [Example 6, N-2,1-benzisoxazol-3-yl-4-(3-{[5-(trifluoromethyl)pyridin-2-yl]oxy}benzylidene)piperidine-1-carboxamide] is 2-fold lower in kinact/KI: 5050 M⁻¹ s⁻¹ for the first, 2510 M⁻¹ s⁻¹ for the second.

`Cc1ccc(NC(=O)N2CCC(=Cc3cccc(Oc4ccc(C(F)(F)F)cn4)c3)CC2)cn1` [Example 3, N-(6-methylpyridin-3-yl)-4-(3-{[5-(trifluoromethyl)pyridin-2-yl]oxy}benzylidene)piperidine-1-carboxamide] and `COc1ccc(NC(=O)N2CCC(=Cc3cccc(Oc4ccc(C(F)(F)F)cn4)c3)CC2)cn1` [Example 8, N-(6-methoxypyridin-3-yl)-4-(3-{[5-(trifluoromethyl)pyridin-2-yl]oxy}benzylidene)piperidine-1-carboxamide] are within 1.5-fold of each other in kinact/KI: 7800 M⁻¹ s⁻¹ for the first, 10100 M⁻¹ s⁻¹ for the second.

First: O=C(Nc1cnccn1)N1CCC(=Cc2cccc(Oc3ccc(C(F)(F)F)cn3)c2)CC1 [Example 4, N-pyrazin-2-yl-4-(3-{[5-(trifluoromethyl)pyridin-2-yl]oxy}benzylidene)piperidine-1-carboxamide]
Second: O=C(Nc1cncc(Cl)n1)N1CCC(=Cc2cccc(Oc3ccc(C(F)(F)F)cn3)c2)CC1 [Example 27, N-(6-chloropyrazin-2-yl)-4-(3-{[5-(trifluoromethyl)pyridin-2-yl]oxy}benzylidene)piperidine-1-carboxamide]
The kinact/KI of the first is 6.6-fold higher: 25800 M⁻¹ s⁻¹ for the first, 3900 M⁻¹ s⁻¹ for the second.

Compared with `O=C(Nc1cccnn1)N1CCC(=Cc2cccc(Oc3ccc(C(F)(F)F)cn3)c2)CC1` [Example 5, N-pyridazin-3-yl-4-(3-{[5-(trifluoromethyl)pyridin-2-yl]oxy}benzylidene)piperidine-1-carboxamide], `COc1ccc(NC(=O)N2CCC(=Cc3cccc(Oc4ccc(C(F)(F)F)cn4)c3)CC2)nn1` [Example 26, N-(6-methoxypyridazin-3-yl)-4-(3-{[5-(trifluoromethyl)pyridin-2-yl]oxy}benzylidene)piperidine-1-carboxamide] is 2.2-fold lower in kinact/KI: 24700 M⁻¹ s⁻¹ for the first, 11000 M⁻¹ s⁻¹ for the second.

`Cc1cncc(NC(=O)N2CCC(=Cc3cccc(Oc4ccc(C(F)(F)F)cn4)c3)CC2)c1` [Example 7, N-(5-methylpyridin-3-yl)-4-(3-{[5-(trifluoromethyl)pyridin-2-yl]oxy}benzylidene)piperidine-1-carboxamide] and `COc1cncc(NC(=O)N2CCC(=Cc3cccc(Oc4ccc(C(F)(F)F)cn4)c3)CC2)n1` [Example 23, N-(6-methoxypyrazin-2-yl)-4-(3-{[5-(trifluoromethyl)pyridin-2-yl]oxy}benzylidene)piperidine-1-carboxamide] are within 1.5-fold of each other in kinact/KI: 2880 M⁻¹ s⁻¹ for the first, 2910 M⁻¹ s⁻¹ for the second.

Compared with `O=C(Nc1ccccc1)N1CCC(=Cc2cccc(Oc3ccc(C(F)(F)F)cn3)c2)CC1` [Example 10, N-phenyl-4-(3-{[5-(trifluoromethyl)pyridin-2-yl]oxy}benzylidene)piperidine-1-carboxamide], `O=C(Nc1cnc(-c2ccccc2)cn1)N1CCC(=Cc2cccc(Oc3ccc(C(F)(F)F)cn3)c2)CC1` [Example 21, N-(5-phenyl-pyrazin-2-yl)-4-(3-{[5-(trifluoromethyl)pyridin-2-yl]oxy}benzylidene)piperidine-1-carboxamide] is 1.7-fold lower in kinact/KI: 3070 M⁻¹ s⁻¹ for the first, 1850 M⁻¹ s⁻¹ for the second.

`N#Cc1ccc(NC(=O)N2CCC(=Cc3cccc(Oc4ccc(C(F)(F)F)cn4)c3)CC2)cn1` [Example 11, N-(6-cyanopyridin-3-yl)-4-(3-{[5-(trifluoromethyl)pyridin-2-yl]oxy}benzylidene)piperidine-1-carboxamide hydrochloride] and `O=C(Nc1ccc2nn[nH]c2c1)N1CCC(=Cc2cccc(Oc3ccc(C(F)(F)F)cn3)c2)CC1` [Example 14, N-1H-1,2,3-benzotriazol-6-yl-4-(3-{[5-(trifluoromethyl)pyridin-2-yl]oxy}benzylidene)piperidine-1-carboxamide] are within 1.5-fold of each other in kinact/KI: 4040 M⁻¹ s⁻¹ for the first, 3190 M⁻¹ s⁻¹ for the second.

Compared with `COc1cnc(NC(=O)N2CCC(=Cc3cccc(Oc4ccc(C(F)(F)F)cn4)c3)CC2)cn1` [Example 12, N-(5-methoxypyrazin-2-yl)-4-(3-{[5-(trifluoromethyl)pyridin-2-yl]oxy}benzylidene)piperidine-1-carboxamide], `Cc1nccnc1NC(=O)N1CCC(=Cc2cccc(Oc3ccc(C(F)(F)F)cn3)c2)CC1` [Example 24, N-(3-methylpyrazin-2-yl)-4-(3-{[5-(trifluoromethyl)pyridin-2-yl]oxy}benzylidene)piperidine-1-carboxamide] is 4.5-fold lower in kinact/KI: 10800 M⁻¹ s⁻¹ for the first, 2410 M⁻¹ s⁻¹ for the second.

First: O=C(NC(=O)N1CCC(=Cc2cccc(Oc3ccc(C(F)(F)F)cn3)c2)CC1)c1ccccn1 [Example 15, N-{[4-(3-{[5-(trifluoromethyl)pyridin-2-yl]oxy}benzylidene)piperidin-1-yl]carbonyl}pyridine-2-carboxamide]
Second: Cc1cccc(C(=O)NC(=O)N2CCC(=Cc3cccc(Oc4ccc(C(F)(F)F)cn4)c3)CC2)n1 [Example 16, 6-methyl-N-{[4-(3-{[5-(trifluoromethyl)pyridin-2-yl]oxy}benzylidene)piperidin-1-yl]carbonyl}pyridine-2-carboxamide]
The kinact/KI of the first is 6-fold higher: 12900 M⁻¹ s⁻¹ for the first, 2150 M⁻¹ s⁻¹ for the second.

`O=C(Nc1cccnc1)N1CCC(=Cc2cccc(OCc3ccccc3)c2)CC1` [Example 17, 4-[3-(benzyloxy)benzylidene]-N-pyridin-3-ylpiperidine-1-carboxamide] and `O=C(Nc1cccnc1)N1CCC(=Cc2cccc(Oc3ccc(F)cc3)c2)CC1` [Example 20, 4-[3-(4-fluorophenoxy)benzylidene]-N-pyridin-3-ylpiperidine-1-carboxamide] are within 1.5-fold of each other in kinact/KI: 1620 M⁻¹ s⁻¹ for the first, 2380 M⁻¹ s⁻¹ for the second.

`O=C(Nc1onc2ccccc12)N1CCC(=Cc2cccc(Oc3ccc(F)cc3)c2)CC1` [Example 18, N-2,1-benzisoxazol-3-yl-4-[3-(4-fluorophenoxy)benzylidene]piperidine-1-carboxamide] and `Cc1noc(NC(=O)N2CCC(=Cc3cccc(Oc4ccc(F)cc4)c3)CC2)c1C` [Example 19, N-(3,4-dimethylisoxazol-5-yl)-4-[3-(4-fluorophenoxy)benzylidene]piperidine-1-carboxamide] are within 1.5-fold of each other in kinact/KI: 2730 M⁻¹ s⁻¹ for the first, 3450 M⁻¹ s⁻¹ for the second.
